Among the data in ChEMBL document CHEMBL3991601, “The target landscape of clinical kinase drugs” (Science, 2017) are Kd values, retold here.

As usually defined, the Kd is the constant that tells how readily two partners part at equilibrium.

Activity calls are given as the source filed them.

Assay [1] has as its target T1, Very long-chain specific acyl-CoA dehydrogenase, mitochondrial (Homo sapiens, UniProt P49748).
T1 sequence (P49748 whole entry): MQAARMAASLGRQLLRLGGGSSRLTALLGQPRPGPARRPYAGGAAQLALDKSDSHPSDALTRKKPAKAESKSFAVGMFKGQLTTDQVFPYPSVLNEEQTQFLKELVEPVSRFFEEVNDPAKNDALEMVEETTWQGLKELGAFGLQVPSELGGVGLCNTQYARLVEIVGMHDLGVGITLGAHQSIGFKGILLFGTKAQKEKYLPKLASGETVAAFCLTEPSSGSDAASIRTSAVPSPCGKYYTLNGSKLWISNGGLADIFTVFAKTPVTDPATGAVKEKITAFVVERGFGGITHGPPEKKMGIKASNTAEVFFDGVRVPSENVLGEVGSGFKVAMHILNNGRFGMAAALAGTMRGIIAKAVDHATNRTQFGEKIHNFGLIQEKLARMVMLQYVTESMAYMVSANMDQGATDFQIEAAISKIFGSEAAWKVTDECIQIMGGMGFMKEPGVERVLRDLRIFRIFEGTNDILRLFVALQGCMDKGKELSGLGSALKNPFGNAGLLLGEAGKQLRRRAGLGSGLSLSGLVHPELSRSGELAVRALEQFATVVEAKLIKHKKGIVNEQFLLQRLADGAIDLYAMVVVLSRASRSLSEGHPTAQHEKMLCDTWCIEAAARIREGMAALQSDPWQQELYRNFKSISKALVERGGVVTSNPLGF

In assay [2] the target is T2, Dual specificity mitogen-activated protein kinase kinase 5 (Homo sapiens, UniProt Q13163).
T2 sequence (Q13163 whole entry): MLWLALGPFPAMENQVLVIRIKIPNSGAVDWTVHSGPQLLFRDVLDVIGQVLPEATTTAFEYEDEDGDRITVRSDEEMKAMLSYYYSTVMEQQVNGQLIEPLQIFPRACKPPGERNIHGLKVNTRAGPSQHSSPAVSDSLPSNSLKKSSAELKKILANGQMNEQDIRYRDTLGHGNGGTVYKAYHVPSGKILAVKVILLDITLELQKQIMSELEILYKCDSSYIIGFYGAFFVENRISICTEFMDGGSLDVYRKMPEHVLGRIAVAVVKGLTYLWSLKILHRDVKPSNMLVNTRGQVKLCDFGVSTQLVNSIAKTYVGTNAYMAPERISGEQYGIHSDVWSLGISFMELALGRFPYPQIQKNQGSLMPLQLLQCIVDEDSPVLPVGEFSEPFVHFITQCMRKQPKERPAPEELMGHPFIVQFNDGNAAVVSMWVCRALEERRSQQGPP

Assay [3] has as its target T3, NUAK family SNF1-like kinase 2 (Homo sapiens, UniProt Q9H093).
T3 sequence (Q9H093 whole entry): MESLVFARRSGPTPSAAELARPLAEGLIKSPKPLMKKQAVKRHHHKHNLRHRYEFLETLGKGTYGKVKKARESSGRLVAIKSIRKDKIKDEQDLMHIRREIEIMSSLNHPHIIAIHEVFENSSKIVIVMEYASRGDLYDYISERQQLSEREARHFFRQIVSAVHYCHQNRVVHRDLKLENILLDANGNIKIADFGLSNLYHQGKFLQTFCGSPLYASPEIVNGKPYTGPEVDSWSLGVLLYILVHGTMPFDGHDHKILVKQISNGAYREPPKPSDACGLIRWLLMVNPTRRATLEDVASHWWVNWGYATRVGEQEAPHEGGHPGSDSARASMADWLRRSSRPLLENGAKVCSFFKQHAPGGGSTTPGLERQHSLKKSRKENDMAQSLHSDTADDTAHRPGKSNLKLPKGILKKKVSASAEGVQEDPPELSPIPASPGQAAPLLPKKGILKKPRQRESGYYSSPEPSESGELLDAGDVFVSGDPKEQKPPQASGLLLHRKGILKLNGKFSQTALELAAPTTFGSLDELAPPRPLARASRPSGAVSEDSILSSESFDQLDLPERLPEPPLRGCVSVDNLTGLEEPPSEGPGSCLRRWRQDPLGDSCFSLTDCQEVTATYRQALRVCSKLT

In assay [4] the target is cAMP-dependent protein kinase type II-alpha regulatory subunit (Homo sapiens, UniProt P13861).
Chain of cAMP-dependent protein kinase type II-alpha regulatory subunit (P13861 whole entry): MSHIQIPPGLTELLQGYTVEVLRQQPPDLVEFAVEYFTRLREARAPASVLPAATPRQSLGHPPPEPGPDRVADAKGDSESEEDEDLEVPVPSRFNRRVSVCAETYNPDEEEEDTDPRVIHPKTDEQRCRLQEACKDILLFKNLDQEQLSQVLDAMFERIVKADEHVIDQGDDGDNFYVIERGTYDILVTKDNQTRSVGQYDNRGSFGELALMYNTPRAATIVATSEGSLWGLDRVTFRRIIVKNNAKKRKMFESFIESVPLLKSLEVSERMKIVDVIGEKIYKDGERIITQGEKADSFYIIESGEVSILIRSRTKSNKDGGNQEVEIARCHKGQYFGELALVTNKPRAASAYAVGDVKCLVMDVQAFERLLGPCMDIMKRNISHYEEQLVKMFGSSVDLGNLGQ
Assay [5] addresses Serine/threonine-protein kinase SIK3 (Homo sapiens, UniProt Q9Y2K2).
Assay [6] addresses T4, Serine/threonine-protein kinase STK11 (Homo sapiens, UniProt Q15831).
T4 sequence (Q15831 whole entry): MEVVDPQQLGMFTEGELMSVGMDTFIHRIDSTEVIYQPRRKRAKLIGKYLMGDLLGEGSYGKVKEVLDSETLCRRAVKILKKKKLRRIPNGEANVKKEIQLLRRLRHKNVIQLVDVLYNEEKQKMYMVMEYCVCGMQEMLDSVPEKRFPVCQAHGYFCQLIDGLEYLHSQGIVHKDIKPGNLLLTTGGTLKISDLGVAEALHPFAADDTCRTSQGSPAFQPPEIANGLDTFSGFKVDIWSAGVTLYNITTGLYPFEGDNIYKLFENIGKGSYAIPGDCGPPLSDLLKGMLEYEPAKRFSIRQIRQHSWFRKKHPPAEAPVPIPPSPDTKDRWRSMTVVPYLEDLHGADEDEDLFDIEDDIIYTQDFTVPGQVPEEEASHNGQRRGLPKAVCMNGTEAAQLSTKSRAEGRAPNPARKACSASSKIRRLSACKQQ
Further: in the data inactive means no Kd found up to 30 µM.

Chain of Serine/threonine-protein kinase SIK3 (Q9Y2K2 whole entry): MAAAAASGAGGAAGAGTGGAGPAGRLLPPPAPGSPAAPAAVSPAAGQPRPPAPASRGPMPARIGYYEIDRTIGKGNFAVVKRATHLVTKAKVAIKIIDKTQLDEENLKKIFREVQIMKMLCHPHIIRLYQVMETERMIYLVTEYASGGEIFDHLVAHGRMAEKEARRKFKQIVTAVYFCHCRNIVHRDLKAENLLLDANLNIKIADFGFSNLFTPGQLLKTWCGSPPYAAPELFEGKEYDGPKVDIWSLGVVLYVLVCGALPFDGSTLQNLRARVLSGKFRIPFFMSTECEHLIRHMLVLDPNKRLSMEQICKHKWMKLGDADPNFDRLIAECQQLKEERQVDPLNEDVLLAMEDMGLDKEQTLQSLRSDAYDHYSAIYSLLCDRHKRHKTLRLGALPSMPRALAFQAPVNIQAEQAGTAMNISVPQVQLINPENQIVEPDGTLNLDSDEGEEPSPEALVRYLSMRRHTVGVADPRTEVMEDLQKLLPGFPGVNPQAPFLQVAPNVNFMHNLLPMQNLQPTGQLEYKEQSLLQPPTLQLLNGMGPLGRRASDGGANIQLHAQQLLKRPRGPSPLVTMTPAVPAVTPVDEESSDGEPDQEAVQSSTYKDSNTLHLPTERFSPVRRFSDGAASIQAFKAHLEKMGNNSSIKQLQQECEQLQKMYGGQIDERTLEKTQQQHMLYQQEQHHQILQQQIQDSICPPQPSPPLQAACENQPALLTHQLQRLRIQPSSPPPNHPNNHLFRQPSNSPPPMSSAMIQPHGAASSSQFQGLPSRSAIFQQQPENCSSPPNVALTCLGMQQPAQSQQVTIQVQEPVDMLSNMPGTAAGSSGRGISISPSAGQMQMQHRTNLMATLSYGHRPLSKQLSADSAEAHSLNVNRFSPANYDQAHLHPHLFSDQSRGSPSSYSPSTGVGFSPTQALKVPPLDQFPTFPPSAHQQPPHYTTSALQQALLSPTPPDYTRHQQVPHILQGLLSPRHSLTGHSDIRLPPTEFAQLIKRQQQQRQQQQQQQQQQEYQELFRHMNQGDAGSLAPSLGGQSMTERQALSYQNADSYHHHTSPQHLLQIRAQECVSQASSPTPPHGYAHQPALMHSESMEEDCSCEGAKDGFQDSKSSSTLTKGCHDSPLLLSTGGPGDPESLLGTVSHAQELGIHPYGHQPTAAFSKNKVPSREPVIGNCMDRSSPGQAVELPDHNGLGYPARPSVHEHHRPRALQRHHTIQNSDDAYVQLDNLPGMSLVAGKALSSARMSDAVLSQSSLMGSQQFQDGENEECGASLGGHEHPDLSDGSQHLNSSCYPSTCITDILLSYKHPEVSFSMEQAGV

For the molecule `C#Cc1cccc(Nc2ncnc3cc4c(cc23)OCCOCCOCCO4)c1` [ICOTINIB], the Kd in assay [1], in assay [2], in assay [3], in assay [4], in assay [5] and in assay [6] was > 30 µM (inactive) in each case.

Consider `Cn1cc(-c2[nH]c3cc(NC(=O)[C@H](N)C4CCCCC4)cc4c3c2C=NNC4=O)cn1`, for which the Kd in assay [1] was > 30 µM (inactive); in assay [2] it was 2.19 µM (active); in assay [3], > 30 µM (inactive); in assay [4] it was > 30 µM (inactive); in assay [5], 0.386 µM (active); in assay [6] it was 4.37 µM (active).

Consider `FC(F)(F)c1ccc(CNc2ccc(Cc3c[nH]c4ncc(Cl)cc34)cn2)cn1` [PEXIDARTINIB], for which the Kd in assay [1], in assay [2], in assay [3], in assay [4], in assay [5] and in assay [6] was > 30 µM (inactive) in each case.

Consider `Cc1cc(C(=O)Nc2cc(Oc3ccc4nc(NC(=O)C5CC5)cn4n3)ccc2C)n(C)n1` [TAK-593], for which the Kd in assay [1], in assay [2], in assay [3], in assay [4], in assay [5] and in assay [6] was > 30 µM (inactive) each time.

Consider `C=CCn1c(=O)c2cnc(Nc3ccc(N4CCN(C)CC4)cc3)nc2n1-c1cccc(C(C)(C)O)n1` [ADAVOSERTIB], for which the Kd in assay [1], in assay [2], in assay [3], in assay [4], in assay [5] and in assay [6] was > 30 µM (inactive) in each case.

With `CCc1nc(C(N)=O)c(Nc2ccc(N3CCC(N4CCN(C)CC4)CC3)c(OC)c2)nc1NC1CCOCC1` [GILTERITINIB], the Kd in assay [1] is > 30 µM (inactive); in assay [2] it was 2.04 µM (active); in assay [3], > 30 µM (inactive); in assay [4], > 30 µM (inactive); in assay [5], > 30 µM (inactive); in assay [6], > 30 µM (inactive).

For the molecule `NC[C@@](O)(c1ccc(Cl)cc1)c1ccc(-c2cn[nH]c2)cc1` [AT-13148], the Kd in assay [1], in assay [2], in assay [3], in assay [4], in assay [5] and in assay [6] was > 30 µM (inactive) throughout.

Regarding `CCOc1ccn(-c2ccc(F)cc2)c(=O)c1C(=O)Nc1ccc(Oc2ccnc(N)c2Cl)c(F)c1` [BMS-777607], the Kd in assay [1] is > 30 µM (inactive); in assay [2], 2.08 µM (active); in assay [3], > 30 µM (inactive); in assay [4], > 30 µM (inactive); in assay [5], > 30 µM (inactive); in assay [6] it was > 30 µM (inactive).

Consider `COc1cc(F)c(F)c(Nc2ccc(I)cc2F)c1NS(=O)(=O)C1(C[C@H](O)CO)CC1` [REFAMETINIB], for which the Kd in assay [1], in assay [2], in assay [3], in assay [4], in assay [5] and in assay [6] was > 30 µM (inactive) throughout.

In the case of `COc1cc2ncnc3c2cc1OCCCCCN(C)Cc1ccc(Br)cc1N3` [JNJ-26483327], the Kd in assay [1], in assay [2], in assay [3], in assay [4], in assay [5] and in assay [6] was > 30 µM (inactive) each time.

For `CCc1cc2c(cc1N1CCC(N3CCOCC3)CC1)C(C)(C)c1[nH]c3cc(C#N)ccc3c1C2=O` [ALECTINIB], the Kd in assay [1], in assay [2], in assay [3], in assay [4], in assay [5] and in assay [6] was > 30 µM (inactive) each time.

In the case of `COc1cc2ncnc(Nc3ccc(F)c(Cl)c3)c2cc1NC(=O)/C=C/CN1CCCCC1` [DACOMITINIB ANHYDROUS], the Kd in assay [1], in assay [2], in assay [3], in assay [4], in assay [5] and in assay [6] was > 30 µM (inactive) throughout.

Take `O=S(=O)(c1cccc2cnccc12)N1CCCNCC1` [FASUDIL]: the Kd in assay [1], in assay [2], in assay [3], in assay [4], in assay [5] and in assay [6] was > 30 µM (inactive) in each case.

For `COc1cc2nccc(Oc3ccc(NC(=O)C4(C(=O)Nc5ccc(F)cc5)CC4)cc3)c2cc1OC` [CABOZANTINIB], the Kd was > 30 µM (inactive) in assay [1]; 2.39 µM (active) in assay [2]; > 30 µM (inactive) in assay [3]; > 30 µM (inactive) in assay [4]; > 30 µM (inactive) in assay [5]; > 30 µM (inactive) in assay [6].

With `Cc1c(Cn2c(C)nc3c(C(=O)O)cc(N4CCOCC4)cc32)cccc1C(F)(F)F` [GSK-2636771], the Kd in assay [1], in assay [2], in assay [3], in assay [4], in assay [5] and in assay [6] was > 30 µM (inactive) in each case.

`Cc1cc(Nc2nc(N[C@@H](C)c3ncc(F)cn3)ncc2Cl)n[nH]1` [AZD-1480]: the Kd is > 30 µM (inactive) in assay [1]; > 30 µM (inactive) in assay [2]; > 30 µM (inactive) in assay [3]; > 30 µM (inactive) in assay [4]; > 30 µM (inactive) in assay [5]; 0.714 µM in assay [6].

In the case of `Cc1ccc(C(=O)Nc2ccc(Oc3cc4cnn(C)c4cc3-c3cn[nH]c3)c(F)c2)c(=O)n1-c1ccc(F)cc1` [MERESTINIB], the Kd in assay [1], in assay [2], in assay [3], in assay [4], in assay [5] and in assay [6] was > 30 µM (inactive) in each case.

In the case of `C[C@]1(O)C[C@@H](c2nc(-c3ccc4ccc(-c5ccccc5)nc4c3)c3c(N)nccn32)C1` [LINSITINIB], the Kd in assay [1] was > 30 µM (inactive); in assay [2] it was 6.56 µM (active); in assay [3], > 30 µM (inactive); in assay [4] it was > 30 µM (inactive); in assay [5], > 30 µM (inactive); in assay [6], > 30 µM (inactive).
